For orientation: pEC50 means −log10 of the EC50, conventionally taken in molar units.

pEC50: −log10 of the molar value.

For 3 molecules, EC50 results are on record in BindingDB's records for doi:10.1016/j.ejmech.2017.02.016 (De Montfort University, 2017).

Series [1] in a line: Inhibition of human CYP1B1 expressed in HEK293 cells assessed as potentiation of cisplatin-induced cytotoxicity by measuring cisplatin EC50 at 0.016 uM by MTT assay (Rvb = 61 +/- 8 uM).
Series [2] can be described thus: Inhibition of human CYP1B1 expressed in human A2780 cells assessed as potentiation of cisplatin-induced cytotoxicity by measuring cisplatin EC50 at 0.016 uM by MTT assay (Rvb = 40 +/- 4.9 uM). For orientation: Tetrazolium assays rely on reduction of a dye to a coloured formazan, in cell work by metabolically active cells.
A short description of series [3]: Inhibition of human CYP1B1 expressed in HEK293 cells assessed as potentiation of cisplatin-induced cytotoxicity by measuring cisplatin EC50 at 0.018 uM by MTT assay (Rvb = 61 +/- 8 uM).
Series [4] is described as follows: Inhibition of human CYP1B1 expressed in human A2780 cells assessed as potentiation of cisplatin-induced cytotoxicity by measuring cisplatin EC50 at 0.018 uM by MTT assay (Rvb = 40 +/- 4.9 uM).
The nature of series [5]: Inhibition of human CYP1B1 expressed in HEK293 cells assessed as potentiation of cisplatin-induced cytotoxicity by measuring cisplatin EC50 at 0.02 uM by MTT assay (Rvb = 61 +/- 8 uM).
The nature of series [6]: Inhibition of human CYP1B1 expressed in human A2780 cells assessed as potentiation of cisplatin-induced cytotoxicity by measuring cisplatin EC50 at 0.02 uM by MTT assay (Rvb = 40 +/- 4.9 uM).

With `O=c1cc(-c2ccccc2)oc2c1ccc1ccccc12`, the pEC50 is 4.40 in series [1] and 4.46 in series [2].

In the case of `COc1ccc2cc(C(=O)/C=C/c3cccnc3)ccc2c1`, the values for the pEC50 in series [3] and in series [4] were 5.08 and 5.48, respectively.

Consider `O=C(/C=C/c1ccc2ccccc2c1)c1cccnc1`, for which the pEC50 in series [5] is 6.00; in series [6] it was 6.30.
